This data set can be described thus: Solubility determination in pure acetonitrile by mass measurement. In kind it is physicochemical. Here is the method:
The solubility of the compounds in pure acetonitrile was determined by the mass measurement method described previously. Saturated solutions of each compound were prepared and filtered to remove any undissolved material. Afterwards, 3 mL of each solution were taken and added to previously weighed vials (the measurement was repeated three times for each solution, i.e. 3 vials for each solution). The vials were then stored open in a nitrogen-filled glove box to allow the slow evaporation of the solvent. After 10 days, acetonitrile was evaporated from all vials, leaving only the previously dissolved solid. The vials were then re-weighed and the mass of the solid was determined by subtracting the mass of the respective empty vial. The concentration of the compound was calculated from the mass of the dissolved solid and the volume of the sample placed into the vial.
The solubilities of 1-4 were examined in pure CH3CN using the mass measurement method.

Results on 1 compound are retold here after US20250304526A1, “HIGH AND MULTIPLE REDOX POTENTIAL, STABLE, AND SOLUBLE BIS-DIARYLAMINE DERIVATIVES AND USES THEREOF” (University of Kentucky Research Foundation, priority 2024, published 2025).

As for `c1ccc(N(c2ccccc2)c2ccc(N(c3ccccc3)c3ccccc3)cc2)cc1` [A, N,N,N′,N′-Tetraphenyl-1,4-phenylenediamine, reference compound], the solubility entry is listed as “virtually insoluble”.
